Laboratory results taken from PubChem BioAssay (NCI).
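Cultured in 96-well plates, cells were exposed to test compound for 48 hours across five concentrations. GI50 marks 50% less growth. TGI denotes the concentration required for complete inhibition of growth.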

How the values were obtained:
Test in all cases: NCI anticancer screen, dose series, 48 h
[1] = tested on: COLO 205 colon
[2] = tested on: DU-145 prostate
[3] = tested on: HOP-92 NSCLC
[4] = tested on: MALME-3M melanoma
[5] = tested on: MOLT-4 leukemia
[6] = tested on: RXF 393 renal
[7] = tested on: SF-539 CNS
[8] = tested on: SK-OV-3 ovarian
[9] = tested on: UO-31 renal
[10] = tested on: HS 578T breast

Row | SMILES | TGI [1] [µM] | TGI [2] [µM] | TGI [3] [µM] | TGI [4] [µM] | TGI [5] [µM] | TGI [6] [µM] | TGI [7] [µM] | TGI [8] [µM] | TGI [9] [µM] | GI50 [1] [µM] | GI50 [2] [µM] | GI50 [10] [µM] | TGI [10] [µM] | GI50 [4] [µM] | GI50 [5] [µM] | GI50 [6] [µM] | GI50 [7] [µM] | GI50 [8] [µM] | GI50 [9] [µM]
1 | C/C(=N/NC(N)=S)C(CN1CCOCC1)C(C1=C(O)c2ccccc2OC1)c1ccccc1 (stereo not given) | > 100 | > 100 | > 100 | > 100 | > 100 | > 100 | > 100 | > 100 | > 100 |  |  |  |  |  |  |  |  |  | 
2 | COc1cc(N)c(Cl)cc1C(=O)N[C@@H]1CCN(CCCOc2ccc(F)cc2)C[C@@H]1OC | > 100 | > 100 |  | > 100 | > 100 | > 100 | > 100 | > 100 | > 100 | 54.8 | > 100 | > 100 | > 100 | > 100 | 29.8 | > 100 | 66.2 | > 100 | 27.9
3 | CC(NC1CCCC[C@@H]1O)c1ccccc1 (stereo not given in full) | > 100 |  | > 100 | > 100 | > 100 | > 100 |  | > 100 | > 100 |  |  |  |  |  |  |  |  |  | 
4 | COC(=O)N[C@@H](C)CNc1nccc(-c2cn(C(C)C)nc2-c2cc(Cl)cc(NS(C)(=O)=O)c2F)n1 | > 100 | > 100 |  |  | > 100 | 23.3 | > 100 | > 100 | > 100 | < 0.01 | > 93 | 0.599 | > 100 |  | 50.9 | 0.623 | 62.6 | 0.363 | 4.57
5 | CCOC(=O)NN1C(=O)C(=P(c2ccccc2)(c2ccccc2)c2ccccc2)C(C(=O)OC)=C1C | > 100 |  | > 100 | > 100 | > 100 | > 100 | > 100 | > 100 | > 100 |  |  |  |  |  |  |  |  |  | 
6 | O=C1N=C2N=C(c3ccc(Cl)cc3)N(c3ccc(Cl)cc3)N2Sc2ccccc21 | > 100 |  | > 100 | > 100 | > 100 | > 100 | > 100 | > 100 | > 100 |  |  |  |  |  |  |  |  |  | 
7 | c1ccc(C2N=C(c3ccccn3)C(c3ccccn3)=NC2c2ccccc2)cc1 (stereo not given) | > 100 |  | > 100 | > 100 | > 100 | > 100 | > 100 | > 100 | > 100 |  |  |  |  |  |  |  |  |  | 
8 | Fc1ccc(-c2ncn(C3CCNCC3)c2-c2ccnc(Oc3ccc(Cl)cc3)n2)cc1 | 7.31 | > 15.8 |  | 10.1 | 12.9 | 5.91 | 8.39 | 8.12 | 12.2 | 3.76 | 6.37 | 2.58 | > 11.3 | 4.64 | 5.18 | 2.56 | 4.2 | 3.88 | 3.38
9 | COC(=O)C1=C(O)c2cc(OC)c(OC)c(OC)c2C(c2ccc3c(c2)OCO3)[C@@H]1C(=O)OC (stereo not given in full) | 6.37 |  | > 100 | > 100 | > 100 | 6.26 | 5.52 | 8.76 | > 100 |  |  |  |  |  |  |  |  |  | 
